As a reminder, the IC50 is the concentration that inhibits the measured activity by half. Low readings indicate higher potency, high ones lower potency.

This passage reports IC50 results from ChEMBL document CHEMBL1287660, “Pharmacophore modeling and virtual screening studies for new VEGFR-2 kinase inhibitors” (Eur J Med Chem, 2010).

The experiment concerns the target Vascular endothelial growth factor receptor 2 (Homo sapiens, UniProt P35968).

Each structure is given as a SMILES string.

Sequence of Vascular endothelial growth factor receptor 2 (P35968 whole entry): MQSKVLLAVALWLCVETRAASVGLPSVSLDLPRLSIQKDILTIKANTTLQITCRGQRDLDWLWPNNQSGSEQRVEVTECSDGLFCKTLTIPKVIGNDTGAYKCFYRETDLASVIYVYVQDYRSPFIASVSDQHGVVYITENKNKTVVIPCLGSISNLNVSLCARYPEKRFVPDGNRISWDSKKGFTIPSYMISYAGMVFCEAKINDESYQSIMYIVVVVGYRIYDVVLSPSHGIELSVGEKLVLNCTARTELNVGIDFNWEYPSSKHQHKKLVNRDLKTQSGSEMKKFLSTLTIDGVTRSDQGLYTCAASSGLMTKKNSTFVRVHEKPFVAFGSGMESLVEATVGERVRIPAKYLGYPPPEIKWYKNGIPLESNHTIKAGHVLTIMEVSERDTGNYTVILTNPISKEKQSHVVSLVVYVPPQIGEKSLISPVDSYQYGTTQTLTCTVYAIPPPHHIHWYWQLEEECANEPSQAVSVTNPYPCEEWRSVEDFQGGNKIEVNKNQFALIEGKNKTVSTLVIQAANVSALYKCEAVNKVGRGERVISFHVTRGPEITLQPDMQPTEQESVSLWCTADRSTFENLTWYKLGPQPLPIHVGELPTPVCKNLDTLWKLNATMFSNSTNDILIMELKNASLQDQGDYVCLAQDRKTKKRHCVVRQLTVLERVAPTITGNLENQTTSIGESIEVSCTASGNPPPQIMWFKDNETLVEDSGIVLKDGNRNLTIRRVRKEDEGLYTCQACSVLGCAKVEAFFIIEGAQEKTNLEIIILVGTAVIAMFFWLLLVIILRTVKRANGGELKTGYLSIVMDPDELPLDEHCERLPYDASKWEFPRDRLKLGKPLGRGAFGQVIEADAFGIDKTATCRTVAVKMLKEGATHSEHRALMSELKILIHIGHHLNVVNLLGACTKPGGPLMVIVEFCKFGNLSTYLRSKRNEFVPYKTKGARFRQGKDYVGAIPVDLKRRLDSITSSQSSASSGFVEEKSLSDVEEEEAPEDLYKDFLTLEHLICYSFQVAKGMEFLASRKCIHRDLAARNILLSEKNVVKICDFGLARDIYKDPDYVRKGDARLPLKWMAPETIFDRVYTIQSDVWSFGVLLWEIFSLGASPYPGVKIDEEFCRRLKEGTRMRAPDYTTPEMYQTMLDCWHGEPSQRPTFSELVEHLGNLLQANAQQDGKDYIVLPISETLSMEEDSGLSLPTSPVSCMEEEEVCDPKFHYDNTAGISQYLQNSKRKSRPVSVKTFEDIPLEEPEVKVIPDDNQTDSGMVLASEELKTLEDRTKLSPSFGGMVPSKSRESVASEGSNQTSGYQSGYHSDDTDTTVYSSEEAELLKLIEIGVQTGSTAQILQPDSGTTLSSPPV

The molecule `COc1ccccc1NC(=O)c1ccc(CSc2nnc3c(n2)[nH]c2ccccc23)cc1` gave an IC50 of 1.6 nM. The result for `O=C(Nc1ccc(Oc2ncnc3sc4c(c23)CCCC4)cc1)c1ccccc1` reads 4.1 nM; that for `Cc1nc2ccccc2n1C1CCN(CC(=O)Nc2ccccc2Br)CC1` [ASN06356088], 10 nM. In the case of `Cc1ccc2nc(NC(=O)Cc3csc(NC(=O)Nc4cccc(Cl)c4)n3)sc2c1`, the midpoint of inhibition, the IC50, lay at 4.2 nM. Consider `NC(=O)c1cc(-c2ccccc2)sc1NC(=O)c1ccc(OC(F)F)cc1`, for which the IC50 amounted to 5.6 nM. As for `C[C@@H]1Oc2ccc(-c3csc(NC(=O)c4cccc(Cl)c4)n3)cc2NC1=O`, the figure is 3.4 nM; as for `CNC(=O)c1cc(COc2nnc(Nc3ccc(Cl)cc3)c3ccoc23)ccn1` [TELATINIB], 6 nM; as for `CCOc1ccc(Nc2cnnc(Nc3ccc(OCC)cc3)n2)cc1`, 4.1 nM. `CNC(=O)c1csc2cc(Oc3ccnc4cc(C5=NCCN5C)sc34)ccc12`: the IC50 worked out at 0.34 nM. The result for `CCOC(=O)CSc1nc2c(c(=O)[nH]c(=O)n2C)n1Cc1cccc(C)c1` reads 2.9 nM; that for `O=C(COc1cccc(NC(=O)c2cccnc2)c1)Nc1ccc(Br)cc1` [ASN01107570], 5 nM; that for `COc1ccc(OC)c(NC(=O)c2ccc(CSc3ncnc4[nH]cnc34)cc2)c1`, 5.9 nM.
